These results are taken from patent publication EP0246061A2, “A benzoylurea derivative and its production and use” (SUMITOMO CHEMICAL COMPANY, LIMITED, priority 1986, dated 1987).

What all share (format): in vivo
Test [1] deals with common mosquito (Culex pipiens pallens). The experiment in a line: Emergence inhibition test on last instar larvae of common mosquito in aqueous dilute solution (Test example 1). To be noted: active ingredient concentration 3.5 ppm in water; 20 last instar larvae; bred until emergence; two replications. As to the method: The emulsifiable concentrates of the following present compounds prepared according to Formulation example 1 were each diluted with water so that the active ingredient concentration was 3.5 ppm. Thereafter, 100 ml of the aqueous dilute solution thus obtained was put in a 180-ml polyethylene cup, and 20 last instar larvae of common mosquito (Culex pipiens pallens) were liberated therein. The larvae were bred on a bait until emergence to obtain an emergence inhibitory ratio (two replications).

For test [2], the system named is tobacco cutworm (Spodoptera litura). Briefly: Mortality test on fourth instar larvae of tobacco cutworm on treated artificial diet (Test example 2). To be noted: 144 h; for mortality at 0.5 ppm: read-out: Concentration and mortality (%) 0.5 ppm; for mortality at […]: in Nicotiana tabacum, read-out: Concentration and mortality (%) […], 1.5 ppm, 2 ml on 13 g artificial diet, ten fourth instar larvae, after six days, two replications. The protocol: The emulsifiable concentrates of the following present compounds and controls prepared according to Formulation example 1 were each diluted with water to a prescribed concentration, and 2 ml of the aqueous dilute solution thus obtained was applied onto 13 g of artificial diet for tobacco cutworm (Spodoptera litura) which were then put in a polyethylene cup of 11 cm in diameter. Then, ten fourth instar larvae of tobacco cutworm were liberated therein. After six days, the dead and alive were examined to obtain mortality (two replications).

Test [3] concerns rice stem borer (Chilo suppressalis). The experiment in a line: Mortality test on 10-day old larvae of rice stem borer on treated artificial diet (Test example 3). To be noted: 192 h, 67,000-fold dilution (1.5 ppm), 1 ml on 5 g artificial diet, ten 10-day old larvae, after eight days, two replications. The source says: Then, ten 10-day old larvae of rice stem borer were liberated therein. After eight days, the dead and alive were examined to obtain mortality (two replications).

In test [4] the test system is diamond-back moth (Plutella xylostella) of a field strain. Briefly: Emergence inhibition test on third instar larvae of diamond-back moth, cabbage leaf dipping (Test example 4). To be noted: 200,000-fold dilution (0.5 ppm); cabbage leaf dipped 1 minute; ten third instar larvae; after nine days; corrected against untreated plot; two replications. As to the method:
A circular cabbage leaf of 9.0 cm in diameter was dipped for 1 minute in the 200,000-fold aqueous dilute solutions each (corresponding to 0.5 ppm) of emulsifiable concentrates prepared from the following present compounds and controls according to Formulation example 1. After air-drying, the leaf was put in a polyethylene cup of 11 cm in diameter in which a filter paper was placed on the bottom, and ten third instar larvae of diamond-back moth (Plutella xylostella) of a field strain were liberated therein. After nine days, the number of emergence was examined to obtain an emergence inhibitory ratio (two replications).

[5] abbreviates: 0.5 ppm, 2 ml on 13 g artificial diet, ten fourth instar larvae, after six days, two replications.

Molecules are shown by their SMILES. Like-named read-outs stand apart in the source and are kept apart here.

As for `O=C(NC(=O)c1c(F)cccc1F)Nc1ccc(C(F)(F)F)cc1F` [(1), N-2,6-difluorobenzoyl-Nʹ-2-fluoro-4-trifluoromethylphenylurea], the “Emergence inhibitory ratio (%)” value in test [1] and in test [4] was 100% in each case. In addition, the mortality at 0.5 ppm in test [2] (setting [5]) was determined as 80%. The mortality at […] in test [2] worked out at 100%; in test [3], 90%.

Take `O=C(NC(=O)c1c(F)cccc1F)Nc1cc(F)c(C(F)(F)F)cc1F` [(2), N-2,6-difluorobenzoyl-Nʹ-2,5-difluoro-4-trifluoromethylphenylurea]: the “Emergence inhibitory ratio (%)” value in test [1] and in test [4] was 100% throughout. In addition, in test [2] (setting [5]), the mortality at 0.5 ppm came to 100%. Also, the mortality at […] in test [2] and in test [3] was 100% in each case.

`O=C(NC(=O)c1c(F)cc(F)cc1F)Nc1cc(F)c(C(F)(F)F)cc1F` [(3), N-2,4,6-trifluorobenzoyl-Nʹ-2,5-difluoro-4-trifluoromethylphenylurea]: the entries for the “Emergence inhibitory ratio (%)” value in test [1] and in test [4] were 100% and 89%, respectively. In addition, in test [2] (setting [5]), the mortality at 0.5 ppm came out at 100%. For the same compound, the results for the mortality at […] in test [2] and in test [3] were 100% and 90%, respectively.

Turning to `O=C(NC(=O)c1c(F)cccc1F)Nc1cc(Cl)c(C(F)(F)F)cc1F` [(4), N-2,6-difluorobenzoyl-Nʹ-5-chloro-2-fluoro-4-trifluoromethylphenylurea], the entries for the “Emergence inhibitory ratio (%)” value in test [1] and in test [4] were 100% and 89%, respectively. Besides, the mortality at 0.5 ppm in test [2] (setting [5]) turned out to be 70%. Also, the mortality at […] in test [2] and in test [3] was 100% in each case.

For the compound `O=C(NC(=O)c1c(F)cc(F)cc1F)Nc1ccc(C(F)(F)F)cc1F` [(5), N-2,4,6-trifluorobenzoyl-Nʹ-2-fluoro-4-trifluoromethylphenylurea], the “Emergence inhibitory ratio (%)” value in test [1] and in test [4] was 100% throughout. The mortality at 0.5 ppm in test [2] (setting [5]) was determined as 100%. Also, the mortality at […] in test [2] and in test [3] was 100% in each case.

As for `O=C(NC(=O)c1c(F)cccc1F)Nc1cc(F)c(C(F)(F)C(F)(F)F)cc1F` [(6), N-2,6-difluorobenzoyl-Nʹ-2,5-difluoro-4-pentafluoroethylphenylurea], the “Emergence inhibitory ratio (%)” value in test [1] and in test [4] was 100% throughout. For the same compound, in test [2] (setting [5]), the mortality at 0.5 ppm was determined as 100%. Moreover, the mortality at […] in test [2] turned out to be 100%; in test [3], 80%.

Turning to `O=C(NC(=O)c1c(F)cccc1F)Nc1cc(F)c(C(F)(F)C(F)(F)C(F)(F)F)cc1F` [(7), N-2,6-difluorobenzoyl-Nʹ-2,5-difluoro-4-heptafluoropropylphenylurea], the “Emergence inhibitory ratio (%)” value in test [1] and in test [4] was 100% in each case. Besides, the mortality at 0.5 ppm in test [2] (setting [5]) was 100%. Further, the mortality at […] in test [2] and in test [3] was 100% each time.

`O=C(NC(=O)c1c(F)cc(F)cc1F)Nc1cc(F)c(C(F)(F)C(F)(F)C(F)(F)F)cc1F` [(8), N-2,4,6-trifluorobenzoyl-Nʹ-2,5-difluoro-4-heptafluoropropylphenylurea]: the “Emergence inhibitory ratio (%)” value in test [1] was 100%; in test [4], 73%. The compound also yielded a mortality at […] in test [3] of 80%.

Turning to `O=C(NC(=O)c1c(F)cccc1F)Nc1ccc(C(F)(F)C(F)(F)F)cc1F` [(9), N-2,6-difluorobenzoyl-Nʹ-2-fluoro-4-pentafluoroethylphenylurea], the “Emergence inhibitory ratio (%)” value in test [1] and in test [4] was 100% throughout. For the same compound, the mortality at 0.5 ppm in test [2] (setting [5]) amounted to 100%. For the same compound, the mortality at […] is 100% in test [2] and 90% in test [3].

For `O=C(NC(=O)c1c(F)cc(F)cc1F)Nc1ccc(C(F)(F)C(F)(F)F)cc1F` [(10), N-2,4,6-trifluorobenzoyl-Nʹ-2-fluoro-4-pentafluoroethylphenylurea], the “Emergence inhibitory ratio (%)” value in test [1] and in test [4] was 100% in each case. For the same compound, in test [2] (setting [5]), the mortality at 0.5 ppm was 100%. For the same compound, the mortality at […] in test [2] is 100%; in test [3] it was 80%.

Take `O=C(NC(=O)c1c(F)cccc1F)Nc1ccc(Cl)cc1` [(A), Diflubenzuron, reference compound]: the mortality at 0.5 ppm in test [2] is 5%. Besides, the “Emergence inhibitory ratio (%)” value in test [4] came out at 11%.

With `O=C(NC(=O)c1c(F)cccc1F)Nc1cc(Cl)c(F)c(Cl)c1F` [(C), Teflubenzuron, reference compound], the mortality at 0.5 ppm in test [2] came to 20%. Moreover, the “Emergence inhibitory ratio (%)” value in test [4] is listed as 33%.

With `CNC(=O)ON=C(C)SC` [(D), Methomyl, reference compound], the mortality at 0.5 ppm in test [2] (setting [5]) worked out at 0%. The mortality at […] in test [2] is 10%; in test [3] it was 5%. Further, the “Emergence inhibitory ratio (%)” value in test [4] was 0%.

For `O=C(NC(=O)c1c(F)cccc1F)Nc1ccc(Cl)cc1F` [(E), reference compound], the mortality at 0.5 ppm in test [2] (setting [5]) amounted to 10%. In addition, the values for the mortality at […] in test [2] and in test [3] were 45% and 35%, respectively. In addition, the “Emergence inhibitory ratio (%)” value in test [4] came to 33%.

For `O=C(NC(=O)c1c(F)cccc1F)Nc1cc(Cl)cc(C(F)(F)F)c1Cl` [(F), reference compound], in test [2] (setting [5]), the mortality at 0.5 ppm was 20%. Besides, the mortality at […] in test [2] worked out at 60%; in test [3], 10%. The “Emergence inhibitory ratio (%)” value in test [4] turned out to be 22%.
